Test results as given in patent US8420592B2, “Methods of treatment using single doses of oritavancin” (The Medicines Company, priority 2008, dated 2013).
In brackets after ≈: the same amount, converted by molar mass.

Assays:
MRSA [1] = experiment: MIC by broth microdilution with 0.002% polysorbate-80, baseline isolates of MITT population; type: cell-based; conditions: Staphylococcus aureus; MRSA subset
Description: (§1) Blood and infection site cultures were obtained within three days of enrollment (often done at the time of enrollment). End-of-therapy, TOC, and late follow-up (or at early relapse) cultures were obtained from the infection site if clinically indicated. […] Specimens were cultured and pathogens were identified at each investigative site's certified laboratory. All isolated gram-positive pathogen(s) that were obtained from the infection site at baseline/randomization and up to and including the TOC time point were subcultured and sent to a central laboratory (Covance Clinical Laboratories, Indianapolis, Ind.) for confirmatory identification and susceptibility testing. In cases of discrepancy between the local and the central laboratory, central laboratory results were used.
(§2) At least one gram-positive organism was isolated from the infection site at baseline in 209 patients (69.2%) in the ITT population. The most commonly isolated pathogen was S. aureus, which was isolated from 87.6% (183/209) of MITT patients. MRSA was isolated in 49% (103/209) of MITT patients. The other three most common pathogens identified in the MITT population were Streptococcus pyogenes (5.7%, 12/209), Streptococcus agalactiae (3.8%, 8/209) and Enterococcus faecalis (3.8%, 8/209). The range of oritavancin minimum inhibitory concentrations (MICs) for S. aureus in the MITT population, as assessed using broth microdilution with 0.002% polysorbate-80, was 0.008 to 0.5 μg/mL.

MSSA [2] = experiment: as above; type: cell-based; conditions: Staphylococcus aureus; MSSA subset
Description: as §1, §2

[3] = tested on: cSSSI due to gram-positive pathogens; experiment: Phase 2 randomized double-blind study of three oritavancin dose regimens in cSSSI: clinical response at test-of-cure; type: in vivo, human; conditions: for Cure (cure and improvement), % of patients: TOC
Description: A phase 2, multi-center, randomized, double-blind, parallel, active-comparator study in which three dose regimens of oritavancin were explored as a treatment for cSSSI due to gram-positive pathogens was conducted using: a daily dose (200 mg) administered for three to seven days, a single dose (1200 mg), and an infrequent dose (800 mg dose with option for an additional 400 mg on Day 5).
Patients were randomized through an interactive voice response system in a 1:1:1 ratio to receive either 1) oritavancin […] daily dose: 200 mg IV daily for 3 to 7 days as determined by the investigator based on clinical criteria, 2) oritavancin single dose: 1200 mg oritavancin IV on Day 1, or; 3) oritavancin infrequent dose: 800 mg IV on Day 1 with optional 400 mg IV on Day 5 as determined by investigator based on clinical criteria. During randomization patients were stratified by disease categories of wound infection, major abscess, and cellulitis. Placebo IV (5% dextrose in water) was given to maintain the blind.
Analyses were performed on four patient populations: intent-to-treat (ITT), modified intent-to-treat (MITT), clinically evaluable (CE) and microbiologically evaluable (ME). The ITT population included patients who were randomized to treatment and received any amount of study medication. Two patients who were potentially unblinded were excluded from the ITT population for all efficacy analyses. The MITT population included all ITT patients with a gram-positive pathogen isolated at baseline.
(§3) The primary efficacy endpoint was the clinical response in the CE population at TOC, which occurred 20 to 28 days after study enrollment on Day 1. Clinical response was determined by the investigator as part of the end-of-therapy, TOC, and late follow-up procedures by assessing signs and symptoms including fever, pain, tenderness, erythema, induration, edema, purulent drainage, eschar, and devitalized tissue. A clinical response of cure, improvement, failure, or indeterminate was assigned at end-of-therapy and TOC by the investigator based on clinical signs and symptoms. At late follow-up, the investigator could assign the clinical response of relapse in addition to cure, improvement, or indeterminate. Only patients with a clinical response of cure or improvement at TOC were assessed for clinical response at late follow-up.
(§4) Cure was defined as resolution of purulent drainage, pain, edema, fever, erythema, tenderness, and induration. Serous drainage or aspirate and/or granulation tissue could be present. Improvement was defined as resolution of purulent drainage and, in the case of cellulitis, cessation of fever and pain. Residual erythema, edema, pain (in the case of wound or abscess), tenderness, and/or induration could be present as could serous drainage, granulation tissue, eschar, and/or devitalized tissue. Failure included any of the following: presence of purulent drainage (or aspirate) and/or fever; the unanticipated need for abscess drainage or removal of sutures (for treatment of infection)>48 hours after initiation of study therapy; or treatment with nonstudy systemic antibiotic having activity against gram-positive pathogen(s) for the primary infection site or use of topical antibiotics at the site of primary infection 24 hours or more after initiation of study medication therapy.
The primary efficacy endpoint was clinical response (either cure or improvement versus failure) at TOC in the CE population. The primary efficacy analyses were a comparison of the proportions of CE patients with a clinical response of cure (defined as investigator assessment of cure or improvement) in the daily dose group compared to, 1) the single dose group and 2) the infrequent dose group. Adjusted estimates for the differences in response rates and the corresponding confidence intervals (CI) were constructed using the Mantel-Haenszel method stratified by disease category.

MRSA [4] = experiment: Phase 2 cSSSI study: cure rate by baseline pathogen; type: in vivo, Staphylococcus aureus; conditions: MRSA at baseline, TOC
Description: as §3, §4, §1

MSSA [5] = experiment: as above; type: in vivo, Staphylococcus aureus; conditions: MSSA at baseline
Description: as §3, §4, §1

[6] = Clinically evaluable, cellulitis
[7] = Clinically evaluable, major abscess
[8] = Clinically evaluable, Mantel-Haenszel stratified by disease
[9] = Intent to treat, Mantel-Haenszel stratified by disease
[10] = Microbiologically evaluable, Mantel-Haenszel stratified by disease
[11] = Modified intent-to-treat, Mantel-Haenszel stratified by disease

CN[C@H](CC(C)C)C(=O)N[C@H]1C(=O)N[C@@H](CC(N)=O)C(=O)N[C@H]2C(=O)N[C@H]3C(=O)N[C@H](C(=O)N[C@H](C(=O)O)c4cc(O)cc(O)c4-c4cc3ccc4O)[C@H](O[C@H]3C[C@](C)(N)[C@@H](O)[C@H](C)O3)c3ccc(c(Cl)c3)Oc3cc2cc(c3O[C@@H]2O[C@H](CO)[C@@H](O)[C@H](O)[C@H]2O[C@H]2C[C@](C)(NCc3ccc(-c4ccc(Cl)cc4)cc3)[C@@H](O)[C@H](C)O2)Oc2ccc(cc2Cl)[C@H]1O [Oritavancin, N-(4-(4-chlorophenyl)benzyl)A82846B]
MIC90 (MRSA [1]): 0.12 µg/mL (≈ 0.0669 µM) | MIC90 (MSSA [2]): 0.12 µg/mL (≈ 0.0669 µM) | Estimated Difference in cure rate 800 mg − 200 mg [3, 6]: 14.4% | Estimated Difference in cure rate 1200 mg − 200 mg [3, 6]: 29.2% | Cure (cure and improvement), % of patients ([3]; Clinically evaluable, cellulitis, 200 mg IV daily for 3 to 7 days): 58.3% | Cure (cure and improvement), % of patients ([3]; Clinically evaluable, cellulitis, 800 mg IV Day 1 with optional 400 mg Day 5): 72.7% | Cure (cure and improvement), % of patients ([3]; Clinically evaluable, cellulitis, single dose 1200 mg IV Day 1): 87.5% | Estimated Difference in cure rate 800 mg − 200 mg [3, 7]: −4.8% | Estimated Difference in cure rate 1200 mg − 200 mg [3, 7]: −2.3% | Cure (cure and improvement), % of patients ([3]; Clinically evaluable, major abscess, 200 mg IV daily for 3 to 7 days): 92.3% | Cure (cure and improvement), % of patients ([3]; Clinically evaluable, major abscess, 800 mg IV Day 1 with optional 400 mg Day 5): 87.5% | Cure (cure and improvement), % of patients ([3]; Clinically evaluable, major abscess, single dose 1200 mg IV Day 1): 90.0% | Estimated Difference in cure rate 800 mg − 200 mg ([3]; Clinically evaluable, wound): 6.6% | Estimated Difference in cure rate 1200 mg − 200 mg ([3]; Clinically evaluable, wound): 1.3% | Cure (cure and improvement), % of patients ([3]; Clinically evaluable, wound, 200 mg IV daily for 3 to 7 days): 65.4% | Cure (cure and improvement), % of patients ([3]; Clinically evaluable, wound, 800 mg IV Day 1 with optional 400 mg Day 5): 72.0% | Cure (cure and improvement), % of patients ([3]; Clinically evaluable, wound, single dose 1200 mg IV Day 1): 66.7% | Estimated Difference in cure rate 800 mg − 200 mg [3, 8]: 5.2% | Estimated Difference in cure rate 1200 mg − 200 mg [3, 8]: 8.6% | Cure (cure and improvement), % of patients ([3]; Clinically evaluable, 200 mg IV daily for 3 to 7 days): 72.4% | Cure (cure and improvement), % of patients ([3]; Clinically evaluable, 800 mg IV Day 1 with optional 400 mg Day 5): 77.5% | Cure (cure and improvement), % of patients ([3]; Clinically evaluable, single dose 1200 mg IV Day 1): 81.5% | Cure rate ([3]; Clinically evaluable, infrequent dose group, 800 mg Day 1 plus optional 400 mg Day 5): 77.1% | Cure rate ([3]; Clinically evaluable, infrequent dose group, only 800 mg on Day 1): 78.3% | Estimated Difference in cure rate 800 mg − 200 mg [3, 9]: 5.1% | Estimated Difference in cure rate 1200 mg − 200 mg [3, 9]: 8.7% | Cure (cure and improvement), % of patients ([3]; Intent to treat, 200 mg IV daily for 3 to 7 days): 72.4% | Cure (cure and improvement), % of patients ([3]; Intent to treat, 800 mg IV Day 1 with optional 400 mg Day 5): 78.2% | Cure (cure and improvement), % of patients ([3]; Intent to treat, single dose 1200 mg IV Day 1): 81.8% | Estimated Difference in cure rate 800 mg − 200 mg [3, 10]: 11.0% | Estimated Difference in cure rate 1200 mg − 200 mg [3, 10]: 8.5% | Cure (cure and improvement), % of patients ([3]; Microbiologically evaluable, 200 mg IV daily for 3 to 7 days): 69.1% | Cure (cure and improvement), % of patients ([3]; Microbiologically evaluable, 800 mg IV Day 1 with optional 400 mg Day 5): 81.3% | Cure (cure and improvement), % of patients ([3]; Microbiologically evaluable, single dose 1200 mg IV Day 1): 79.3% | Estimated Difference in cure rate 800 mg − 200 mg [3, 11]: 11.1% | Estimated Difference in cure rate 1200 mg − 200 mg [3, 11]: 10.1% | Cure (cure and improvement), % of patients ([3]; Modified intent-to-treat, 200 mg IV daily for 3 to 7 days): 68.8% | Cure (cure and improvement), % of patients ([3]; Modified intent-to-treat, 800 mg IV Day 1 with optional 400 mg Day 5): 80.6% | Cure (cure and improvement), % of patients ([3]; Modified intent-to-treat, single dose 1200 mg IV Day 1): 80.3% | Patients with cellulitis who failed having unplanned surgical procedures or interventions ([3]; daily dose group (200 mg)): 29% | Relapse in CE patients ([3]; daily dose group, late follow-up): no patients | Patients with cellulitis who failed having unplanned surgical procedures or interventions ([3]; infrequent dose group (800 mg)): 7% | Relapse rate in CE patients ([3]; infrequent dose group, late follow-up): 3.7% | Patients with cellulitis who failed having unplanned surgical procedures or interventions ([3]; single dose group (1200 mg), n/total): 0/9 | Relapse rate in CE patients ([3]; single dose group, late follow-up): 1.6% | % of patients cured (cure and improvement) (MRSA [4]; 200 mg daily dose): 78.3% | % of patients cured (cure and improvement) (MRSA [4]; 800 mg infrequent dose): 87.0% | % of patients cured (cure and improvement) (MRSA [4]; 1200 mg single dose): 73.0% | % of patients cured (cure and improvement) (MSSA [5]; 200 mg daily dose): 56.5% | % of patients cured (cure and improvement) (MSSA [5]; 800 mg infrequent dose): 68.8% | % of patients cured (cure and improvement) (MSSA [5]; 1200 mg single dose): 90.9%
